Results taken from patent US6977262B2, “Dihydropyrazolopyridine compounds and pharmaceutical use thereof” (Mitsubishi Pharma Corporation, priority 2001, dated 2005).

SMILES | melting point
CCC1=C(C#N)C(c2ccccc2OC)c2c[nH]nc2N1 (stereo not drawn) [Example 194, 5-Cyano-6-ethyl-4,7-dihydro-4-(2-methoxyphenyl)-2H-pyrazolo[3,4-b]pyridine] | 230 to 232 °C
CCCC1=C(C#N)C(c2ccccc2Cl)c2c(n[nH]c2-c2cccc(OC)c2)N1 (stereo not drawn) [Example 297, 4-(2-Chlorophenyl)-5-cyano-4,7-dihydro-3-(3-methoxyphenyl)-6-propyl-2H-pyrazolo[3,4-b]pyridine] | 239 °C
CCOC(=O)C1=C(C)Nc2n[nH]cc2C1c1ccccc1Cl (stereo not drawn) [Example 1, Ethyl 4-(2-chlorophenyl)-4,7-dihydro-6-methyl-2H-pyrazolo[3,4-b]pyridine-5-carboxylate] | 217 to 221 °C
CCCC1=C(C#N)C(c2ccccc2Cl)c2c[nH]nc2N1 (stereo not drawn) [Example 94, 4-(2-Chlorophenyl)-5-cyano-4,7-dihydro-6-propyl-2H-pyrazolo[3,4-b]pyridine] | 248 °C
CC(=O)C1=C(C#N)C(c2ccccc2Cl)c2c[nH]nc2N1 (stereo not drawn) [Example 1080, 6-Acetyl-4-(2-chlorophenyl)-5-cyano-4,7-dihydro-2H-pyrazolo[3,4-b]pyridine] | 225 to 228 °C (dec.)
COc1ccccc1C1=C(C#N)C(c2cccc3nonc23)c2c[nH]nc2N1 (stereo not drawn) [Example 159, 4-(2,1,3-Benzoxadiazol-4-yl)-5-cyano-4,7-dihydro-6-(2-methoxyphenyl)-2H-pyrazolo[3,4-b]pyridine] | 180 °C
CCCC1=C(C#N)C(c2ccccc2Cl)c2c(n[nH]c2-c2ccc3ccccc3c2)N1 (stereo not drawn) [Example 301, 4-(2-Chlorophenyl)-5-cyano-4,7-dihydro-3-(naphthalen-2-yl)-6-propyl-2H-pyrazolo[3,4-b]pyridine] | > 270 °C
CCCC1=C(C(=O)OCC)C(c2ccccc2OCc2ccccc2)c2c[nH]nc2N1 (stereo not drawn) [Example 38, Ethyl 4-(2-benzyloxyphenyl)-4,7-dihydro-6-propyl-2H-pyrazolo[3,4-b]pyridine-5-carboxylate] | 128 °C
CC(=O)C1=C(C#N)C(c2cccc3nonc23)c2c[nH]nc2N1 (stereo not drawn) [Example 1082, 6-Acetyl-4-(2,1,3-benzoxadiazol-4-yl)-5-cyano-4,7-dihydro-2H-pyrazolo[3,4-b]pyridine] | 230 °C (dec.)
CCCC1=C(C#N)C(c2cccc(Br)c2)c2c[nH]nc2N1 (stereo not drawn) [Example 362, 4-(3-Bromophenyl)-5-cyano-4,7-dihydro-6-propyl-2H-pyrazolo[3,4-b]pyridine] | 202 to 205 °C
CSc1ccccc1C1C(C#N)=C(c2cccs2)Nc2n[nH]cc21 (stereo not drawn) [Example 243, 5-Cyano-4,7-dihydro-4-(2-methylthiophenyl)-6-(thiophen-2-yl)-2H-pyrazolo[3,4-b]pyridine] | 222 °C
COCC1=C(C(=O)OC)C(c2ccccc2Cl)c2c[nH]nc2N1 (stereo not drawn) [Example 84, Methyl 4-(2-chlorophenyl)-4,7-dihydro-6-methoxymethyl-2H-pyrazolo[3,4-b]pyridine-5-carboxylate] | 160 °C
CCCC1=C(C(=O)OCC)C(c2ccccc2O)c2c[nH]nc2N1 (stereo not drawn) [Example 98, Ethyl 4,7-dihydro-4-(2-hydroxyphenyl)-6-propyl-2H-pyrazolo[3,4-b]pyridine-5-carboxylate] | 177 °C
CSc1ccccc1C1C(C#N)=C(c2ccccc2)Nc2n[nH]cc21 (stereo not drawn) [Example 143, 5-Cyano-4,7-dihydro-4-(2-methylthiophenyl)-6-phenyl-2H-pyrazolo[3,4-b]pyridine] | 146 °C
CCCC1=C(C#N)C(c2cccc3nsnc23)c2c[nH]nc2N1 (stereo not drawn) [Example 138, 4-(2,1,3-Benzothiadiazol-4-yl)-5-cyano-4,7-dihydro-6-propyl-2H-pyrazolo[3,4-b]pyridine] | 195 °C
CCCC1=C(C(=O)OCC)C(c2ccccc2Cl)c2cn(C(=O)c3ccccc3)nc2N1 (stereo not drawn) [Example 211, Ethyl 2-benzoyl-4-(2-chlorophenyl)-4,7-dihydro-6-propyl-2H-pyrazolo[3,4-b]pyridine-5-carboxylate] | 119 to 121 °C
CCCC1=C(C(=O)OCC)C(c2cc(OC)ccc2Cl)c2c[nH]nc2N1 (stereo not drawn) [Example 52, Ethyl 4-(2-chloro-5-methoxyphenyl)-4,7-dihydro-6-propyl-2H-pyrazolo[3,4-b]pyridine-5-carboxylate] | 182 °C
N#CC1=C(C2CCCCCC2)Nc2n[nH]cc2C1c1ccccc1Cl (stereo not drawn) [Example 312, 4-(2-Chlorophenyl)-5-cyano-6-cycloheptyl-4,7-dihydro-2H-pyrazolo[3,4-b]pyridine] | 146 °C
CCCC1=C(C#N)C(c2cccc(C)n2)c2c[nH]nc2N1 (stereo not drawn) [Example 359, 5-Cyano-4,7-dihydro-4-(6-methylpyridin-2-yl)-6-propyl-2H-pyrazolo[3,4-b]pyridine] | 177 to 181 °C
CCCC1=C(C#N)C(c2ccccc2Cl)c2c(n[nH]c2CC)N1 (stereo not drawn) [Example 309, 4-(2-Chlorophenyl)-5-cyano-4,7-dihydro-3-ethyl-6-propyl-2H-pyrazolo[3,4-b]pyridine] | 269 °C

SMILES | melting point
CCCC1=C(C#N)C(c2ccccc2Cl)c2c(n[nH]c2-c2cccs2)N1 (stereo not drawn) [Example 294, 4-(2-Chlorophenyl)-5-cyano-4,7-dihydro-6-propyl-3-(thiophen-2-yl)-2H-pyrazolo[3,4-b]pyridine] | 256 °C
CC(=O)N1CCC(C2=C(C#N)C(c3cccc(C#N)c3Br)c3c[nH]nc3N2)CC1 (stereo not drawn) [Example 1051, 6-(1-Acetylpiperidin-4-yl)-4-(2-bromo-3-cyanophenyl)-5-cyano-4,7-dihydro-2H-pyrazolo[3,4-b]pyridine] | > 280 °C
CCCC1=C(C#N)C(c2ccc(F)cc2Cl)c2c[nH]nc2N1 (stereo not drawn) [Example 363, 5-Cyano-4,7-dihydro-4-(4-fluoro-2-chlorophenyl)-6-propyl-2H-pyrazolo[3,4-b]pyridine] | 209 to 212 °C
CCCC1=C(C(=O)OC)C(c2ccccc2Cl)c2c[nH]nc2N1 (stereo not drawn) [Example 28, Methyl 4-(2-chlorophenyl)-4,7-dihydro-6-propyl-2H-pyrazolo[3,4-b]pyridine-5-carboxylate] | 203 to 207 °C
CCOC(=O)C1=C(CC)Nc2n[nH]cc2C1c1ccccc1OC (stereo not drawn) [Example 89, Ethyl 6-ethyl-4,7-dihydro-4-(2-methoxyphenyl)-2H-pyrazolo[3,4-b]pyridine-5-carboxylate] | 169 °C
CN(C)CCC1=C(C#N)C(c2cccc3nonc23)c2c[nH]nc2N1 (stereo not drawn) [Example 1019, 4-(2,1,3-Benzoxadiazol-4-yl)-5-cyano-4,7-dihydro-6-(2-(N,N-dimethylamino)ethyl)-2H-pyrazolo[3,4-b]pyridine] | 215 °C
CCCC1=C(C#N)C(c2ccccc2SC)c2c[nH]nc2N1 (stereo not drawn) [Example 130, 5-Cyano-4,7-dihydro-4-(2-methylthiophenyl)-6-propyl-2H-pyrazolo[3,4-b]pyridine] | 216 °C
CCCC1=C(C#N)C(c2ccccc2Cl)c2c(n[nH]c2C(C)C)N1 (stereo not drawn) [Example 315, 4-(2-Chlorophenyl)-5-cyano-4,7-dihydro-6-propyl-3-isopropyl-2H-pyrazolo[3,4-b]pyridine] | > 270 °C
CCOC(=O)C1=C(C(F)(F)F)Nc2n[nH]cc2C1c1ccc(C(=O)OCC)cc1 (stereo not drawn) [Example 20, Ethyl 4-(4-ethoxycarbonylphenyl)-4,7-dihydro-6-trifluoromethyl-2H-pyrazolo[3,4-b]pyridine-5-carboxylate] | 157 to 160 °C
N#CC1=C(c2ccco2)Nc2n[nH]cc2C1c1cccc2nonc12 (stereo not drawn) [Example 170, 4-(2,1,3-Benzoxadiazol-4-yl)-5-cyano-6-(furan-2-yl)-4,7-dihydro-2H-pyrazolo[3,4-b]pyridine] | 241 °C
CCOC(=O)C1=C(C)Nc2n[nH]cc2C1c1ccccc1C(F)(F)F (stereo not drawn) [Example 3, Ethyl 4,7-dihydro-6-methyl-4-(2-trifluoromethylphenyl)-2H-pyrazolo[3,4-b]pyridine-5-carboxylate] | 259 to 262 °C
CN1CCCC(C2=C(C#N)C(c3cccc4nonc34)c3c[nH]nc3N2)C1 (stereo not drawn) [Example 1006, 4-(2,1,3-Benzoxadiazol-4-yl)-5-cyano-4,7-dihydro-6-(1-methylpiperidin-3-yl)-2H-pyrazolo[3,4-b]pyridine] | 228 °C
CCCCC1=C(C(=O)OCC)C(c2ccccc2Cl)c2c[nH]nc2N1 (stereo not drawn) [Example 83, Ethyl 6-butyl-4-(2-chlorophenyl)-4,7-dihydro-2H-pyrazolo[3,4-b]pyridine-5-carboxylate] | 209 °C
COc1ccc(C2=C(C#N)C(c3ccccc3OC)c3c[nH]nc3N2)cc1 (stereo not drawn) [Example 153, 5-Cyano-4,7-dihydro-4-(2-methoxyphenyl)-6-(4-methoxyphenyl)-2H-pyrazolo[3,4-b]pyridine] | 149 °C
CCCC1=C(C(=O)OCC)C(c2ccccc2Cl)c2cn(C(=O)Oc3ccccc3)nc2N1 (stereo not drawn) [Example 218, Ethyl 4-(2-chlorophenyl)-4,7-dihydro-2-phenoxycarbonyl-6-propyl-2H-pyrazolo[3,4-b]pyridine-5-carboxylate] | 156 to 157 °C
COc1cccc(C2=C(C#N)C(c3cccc4nsnc34)c3c[nH]nc3N2)c1 (stereo not drawn) [Example 164, 4-(2,1,3-Benzothiadiazol-4-yl)-5-cyano-4,7-dihydro-6-(3-methoxyphenyl)-2H-pyrazolo[3,4-b]pyridine] | 220 °C
CC(C)(C)OC(=O)N1CCC(C2=C(C#N)C(c3cccc4nonc34)c3c[nH]nc3N2)CC1 (stereo not drawn) [Example 1001, 4-(2,1,3-Benzoxadiazol-4-yl)-6-(1-t-butoxycarbonylpiperidin-4-yl)-5-cyano-4,7-dihydro-2H-pyrazolo[3,4-b]pyridine] | 226 °C
CCCC1=C(C(=O)OCC)C(c2ccccc2SC)c2c[nH]nc2N1 (stereo not drawn) [Example 39, Ethyl 4,7-dihydro-4-(2-methylthiophenyl)-6-propyl-2H-pyrazolo[3,4-b]pyridine-5-carboxylate] | 198 °C
CC(C)(C)OC(=O)N1CCCC(C2=C(C#N)C(c3cccc(C#N)c3Br)c3c[nH]nc3N2)C1 (stereo not drawn) [Example 1039, 4-(2-Bromo-3-cyanophenyl)-6-(1-t-butoxycarbonylpiperidin-3-yl)-5-cyano-4,7-dihydro-2H-pyrazolo[3,4-b]pyridine] | 238 °C
